Assay results from the supplement of paper PMC8671470.
Where a name gives a salt, the structure may show the parent alone.

Tests used:
Conditions in all cases: 72 h
MV4-11 [1] = system: MV4-11
Outline: (§1)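 Seeded in RPMI 1640 at densities within the linear growth range, fifteen myeloid leukaemia cell lines were dispensed into 384-well plates with acoustically pre-printed compounds spanning five tenfold doses from 1 to 10,000 nM, in duplicate. The plates were kept for 72 h at 37 °C in 5% CO2 before luminescent ATP viability was measured and normalised to vehicle and to a positive control at 10 µM. Curves were fitted with a four-parameter log-logistic model. The IC50 was taken from those curves.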

HL-60 [2] = system: HL-60
Outline: as §1

K-562 [3] = system: K-562
Outline: as §1

KU-812 [4] = system: KU-812
Outline: as §1

THP-1 [5] = system: THP-1
Outline: as §1

MOLM-13 [6] = system: MOLM-13
Outline: as §1

KG-1 [7] = system: KG-1
Outline: as §1

LAMA-84 [8] = system: LAMA-84
Outline: as §1

Mono-Mac-6 [9] = system: Mono-Mac-6
Outline: as §1

BV-173 [10] = system: BV-173
Outline: as §1

KCL-22 [11] = system: KCL-22
Outline: as §1

HEL [12] = system: HEL
Outline: as §1

SHI-1 [13] = system: SHI-1
Outline: as §1

NOMO-1 [14] = system: NOMO-1
Outline: as §1

ML-2 [15] = system: ML-2
Outline: as §1

MV4-11 [16] = assay: cell viability (% survival relative to DMSO control, bortezomib = 0%); higher = less cytotoxic
Outline: (§2)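 Reported values are percent survival from duplicate wells, averaged. Fifteen myeloid leukaemia cell lines were treated in 384-well plates with compounds at 1, 10, 100, 1000 or 10000 nM for 72 h at 37 °C in 5% CO2. Signals from CellTiter-Glo luminescence were scaled with vehicle as 100% and a 10 µM positive control as 0%.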

HL-60 [17] = assay: as above
Outline: as §2

K-562 [18] = assay: as above
Outline: as §2

KU-812 [19] = assay: as above
Outline: as §2

THP-1 [20] = assay: as above
Outline: as §2

MOLM-13 [21] = assay: as above
Outline: as §2

KG-1 [22] = assay: as above
Outline: as §2

LAMA-84 [23] = assay: as above
Outline: as §2

Mono-Mac-6 [24] = assay: as above
Outline: as §2

BV-173 [25] = assay: as above
Outline: as §2

KCL-22 [26] = assay: as above
Outline: as §2

HEL [27] = assay: as above
Outline: as §2

SHI-1 [28] = assay: as above
Outline: as §2

NOMO-1 [29] = assay: as above
Outline: as §2

ML-2 [30] = assay: as above
Outline: as §2

Cc1cc(CS(=O)(=O)c2ccccc2)cc(OCc2ccc(CN3CCC[C@@H]3CO)cc2)c1 [PF-543 hydrochloride]
Conditions | IC50 (cell viability) [µM]
BV-173 [10] | 8.45
HEL [12] | > 10
HL-60 [2] | > 10
K-562 [3] | 4.85
KCL-22 [11] | > 10
KG-1 [7] | > 10
KU-812 [4] | > 10
LAMA-84 [8] | > 10
ML-2 [15] | > 10
MOLM-13 [6] | > 10
MV4-11 [1] | > 10
Mono-Mac-6 [9] | > 10
NOMO-1 [14] | > 10
SHI-1 [13] | > 10
THP-1 [5] | > 10

cell viability [%]
Conditions | 1 nM | 10 nM | 100 nM | 1000 nM | 10000 nM
BV-173 [25] | 83.7 | 103 | 152 | 87.8 | 56.7
HEL [27] | 92 | 88.6 | 105 | 88.1 | 94
HL-60 [17] | 118 | 92.2 | 119 | 83.7 | 79.8
K-562 [18] | 90.4 | 113 | 131 | 91.1 | 40.4
KCL-22 [26] | 91.5 | 94.5 | 122 | 82.5 | 84.9
KG-1 [22] | 92.1 | 102 | 114 | 111 | 84.3
KU-812 [19] | 97.5 | 91.6 | 97.7 | 101 | 61
LAMA-84 [23] | 108 | 91.9 | 103 | 93.9 | 71.5
ML-2 [30] | 89.8 | 97.3 | 130 | 91 | 88.5
MOLM-13 [21] | 72.9 | 110 | 88.8 | 117 | 79.6
MV4-11 [16] | 83.5 | 104 | 119 | 103 | 65.5
Mono-Mac-6 [24] | 89.6 | 84.7 | 101 | 89.8 | 82.9
NOMO-1 [29] | 89.2 | 94.9 | 103 | 101 | 93
SHI-1 [28] | 82.3 | 109 | 100 | 84.8 | 87.9
THP-1 [20] | 89.7 | 95.5 | 111 | 94.8 | 96.5

CCOC(=O)c1ccc(-c2ccc(OC(=O)N(C)Cc3cccc(-c4ccncc4)c3)cc2)cc1 [WWL113]
Conditions | IC50 (cell viability) [µM]
BV-173 [10] | > 10
HEL [12] | > 10
HL-60 [2] | > 10
K-562 [3] | > 10
KCL-22 [11] | > 10
KG-1 [7] | > 10
KU-812 [4] | > 10
LAMA-84 [8] | > 10
ML-2 [15] | > 10
MOLM-13 [6] | > 10
MV4-11 [1] | > 10
Mono-Mac-6 [9] | > 10
NOMO-1 [14] | > 10
SHI-1 [13] | > 10
THP-1 [5] | > 10

cell viability [%]
Conditions | 1 nM | 10 nM | 100 nM | 1000 nM | 10000 nM
BV-173 [25] | 123 | 114 | 102 | 105 | 94.9
HEL [27] | 134 | 99.2 | 91.9 | 104 | 99.6
HL-60 [17] | 103 | 91.3 | 89.1 | 114 | 125
K-562 [18] | 121 | 105 | 94 | 92.1 | 87.5
KCL-22 [26] | 132 | 95.4 | 98.7 | 92.9 | 110
KG-1 [22] | 99.2 | 93.4 | 92.7 | 94.3 | 107
KU-812 [19] | 112 | 100 | 105 | 91.6 | 92
LAMA-84 [23] | 113 | 104 | 94.8 | 114 | 101
ML-2 [30] | 104 | 101 | 94.7 | 106 | 106
MOLM-13 [21] | 120 | 122 | 97.3 | 85.8 | 105
MV4-11 [16] | 129 | 101 | 105 | 103 | 93.3
Mono-Mac-6 [24] | 108 | 112 | 102 | 94.2 | 109
NOMO-1 [29] | 104 | 106 | 88.1 | 104 | 105
SHI-1 [28] | 114 | 100 | 92 | 95.2 | 108
THP-1 [20] | 114 | 101 | 95.2 | 101 | 102
